Measurements reported in patent US12629419B2, “Prevention or mitigation of T-cell engaging agent-related adverse effects” (Hoffmann-La Roche Inc., priority 2020, dated 2026).
“Also recorded” adds a separate entry of the source.

How the values were obtained:
[1] = system: MKN45 NucLight Red (NLR) target cells; assay: killing assay with PBMCs, MKN45 NLR target cells and CEA-TCB (Incucyte); assay type: cell-based
CD4+ and CD8+ T cells [2] = assay: T cell activation (CD25, CD69 by flow cytometry) in CEA-TCB killing assay; assay type: cell-based; settings: 10 nM CEA-TCB; for T cell activation triggered by the TCB: summary statement, also for target cell killing; for CD25 and CD69 expression on CD4+ and CD8+ T cells (T cell activation): 66 h, fixed compound concentrations; for expression of CD69 on CD8+ T cells / expression of CD25 on CD4+ T cells / expression of CD69 on CD4+ T cells / expression of CD25 on CD8+ T cells: 72 h; for expression of CD25 on CD4+ T cells / expression of CD69 on CD4+ T cells / expression of CD25 on CD8+ T cells: concentrations above 25 nM; for expression of CD25 on CD4+ T cells / expression of CD69 on CD4+ T cells: reduced from ~45%; for expression of CD25 on CD8+ T cells: reduced from ~75% (everolimus: ~70%)
WSU DLCL2 tumor cells = assay: killing assay with PBMCs, CTV labelled WSU DLCL2 tumor cells and CD20-TCB; assay type: cell-based; settings: 24 h; for CD20-TCB-mediated target cell killing: 1 nM CD20-TCB, inhibitor 0 nM to 1000 nM; for killing of B cells: WSU cells with PBMCs, CD20-TCB, fixed compound concentrations
Method: FIG. 13. In vitro killing assay set-up.
FIG. 14. […] At 24 hours, the tumor cells and PBMCs from technical replicates were pooled and stained with a LIVE/DEAD™ Near-IR dead cell dye to allow exclusion of dead CTV labelled WSU DLCL2 tumor cells by flow cytometry. Mean of n=3 donors+/−SEM.
(§1) A similar experiment was conducted with another TCB. WSU DLCL2 cells were co-cultured together with PBMCs in the presence of 1 nM CD20-TCB (SEQ ID NOs 4-11, 24-35), and escalating sirolimus doses ranging from 0 nM to 1000 nM (FIG. 13).
(§2) A similar experiment was conducted with another TCB. […] The killing of B cells was measured as a readout for the impact of the various compounds on TCB efficacy at 24 h (FIGS. 27 and 28). […] Lastly, the levels of cytokines (TNF-α, IFN-γ, IL-2, IL-6, IL-4, IL-10, GM-CSF and IL-1β) were analyzed by Luminex at assay endpoint to assess the impact of the different treatments on TCB-induced cytokine release (FIGS. 32 and 33).
(§3) At 24 hours, tumor cell killing was measured by flow cytometry by exclusion of dead CTV cells. The supernatants were collected and cytokines were measured by Luminex.

CD4+ and CD8+ T cells [3] = assay: T cell activation (CD25, CD69) in CD20-TCB killing assay; assay type: cell-based; settings: 1 nM CD20-TCB; 24 h; inhibitor 0 nM to 1000 nM
Method: as §1
(§4) A similar experiment was conducted with CD20-TCB.
(§5) A similar experiment was conducted with CD20-TCB. WSU DLCL2 cells were co-cultured together with PBMCs in the presence of 1 nM CD20-TCB, and escalating everolimus doses ranging from 0 nM to 1000 nM (FIG. 13).
(§6) A similar experiment was conducted with CD20-TCB. WSU DLCL2 cells were co-cultured together with PBMCs in the presence of 1 nM CD20-TCB, and escalating ruxolitinib doses ranging from 0 nM to 1000 nM (FIG. 13).
as §2, §3

[4] = system: CD20-TCB-induced cytokine release; assay: CD20-TCB-induced cytokine release (Luminex); assay type: cell-based; settings: 24 h; for cytokine release induced by CD20-TCB (IFN-γ, IL-2, TNF-α, GM-CSF and IL-6): concentrations above 12.5 nM; for CD20-TCB-induced cytokine release: escalating CD20-TCB / 1 nM CD20-TCB, fixed compound concentrations
Method: A similar experiment was conducted with another TCB.
as §4, §5, §6, §2, §3

[5] = system: CD20-TCB-induced cytokine release; assay: CD20-TCB killing assay, inhibitors added after 18 hours: cytokine release from pre-activated effector cells; assay type: cell-based; settings: 100 nM added at 18 h
Method: FIG. 34. In vitro killing assay set-up. Cell Trace™ Violet (CTV) labelled WSU DLCL2 tumor cells were co-cultured together with PBMCs [E:T=200′000:20′000] and stimulated with CD20-TCB for 18 h.
In this assay, CTV labelled WSU DLCL2 tumors cells were co-cultured with PBMCs in the presence of escalating doses of CD20-TCB for 18 hours.

SUDLH-8 tumor cells = assay: killing assay with PBMCs, CTV labelled SUDLH-8 tumor cells and CD19-TCB; assay type: cell-based; settings: 24 hrs; 100 nM kinase inhibitors or dexamethasone, 5 μg/mL antibodies
Method: FIG. 64. In vitro killing assay set-up. PBMCs were co-cultured with CellTrace™ Violet (CTV) labelled SUDLH-8 tumor cells (E:T=10:1) in the presence of escalating concentrations of CD19-TCB in media supplemented with the different kinase inhibitors (100 nM) for 24 hrs.
FIG. 69. In vitro killing assay set-up. PBMCs were co-cultured with CTV labelled SUDLH-8 cells (E:T=10:1) in the presence of escalating concentrations of CD19-TCB in media supplemented with the different JAK inhibitors (100 nM) for 24 hrs.
FIG. 73. In vitro killing assay set-up.
(§7) PBMCs were co-cultured together with CellTrace™ Violet (CTV) labelled SUDLH-8 tumor cells and escalating concentrations of CD19-TCB in the presence of the different kinase inhibitors, including also the Src inhibitor dasatinib (FIG. 64). At assay endpoint (24 hrs), the killing of CTV labelled SUDLH-8 cells was measured by flow cytometry by exclusion of the dead SUDLH-8 cells with a Live/Dead stain. […] Lastly, the levels of cytokines were measured in the supernatants of the assay to evaluate the effect of mTOR, JAK and Src inhibitors on CD19-TCB-induced cytokine release.
(§8) At assay endpoint (24 hrs), the killing of CTV labelled SUDLH-8 cells was measured by flow cytometry by exclusion of the dead SUDLH-8 cells with a Live/Dead stain. […] Lastly, the levels of cytokines were measured in the supernatants of the assay to assess the effect of the JAK inhibitors on CD19-TCB-induced cytokine release.
(§9) At assay endpoint (24 hrs), the killing of CTV labelled SUDLH-8 cells was measured by flow cytometry by exclusion of the dead SUDLH-8 cells with a Live/Dead stain to evaluate the effect of the different mitigation approaches on CD19-TCB-dependent killing. […] Lastly, the levels of cytokines were measured in the supernatants of the assay to address the effect of the JAK inhibitors on CD19-TCB-induced cytokine release.

[6] = system: CD19-TCB-induced cytokine release; assay: CD19-TCB-induced cytokine release in SUDLH-8 assay (Luminex); assay type: cell-based; settings: 24 hrs
Method: as §7, §8, §9

[7] = system: CEA-TCB-induced cytokine release; assay: CEA-TCB-induced cytokine release (Luminex, supernatants); settings: 10 nM CEA-TCB; for levels of IFN-γ, TNF-α, IL-2, IL-6, MCP-1, IL-8, IL-10, IL-4 and GM-CSF: assay endpoint 72 h (ruxolitinib 69 h), in comparison to samples without inhibitor; for CEA-TCB induced cytokine release: even at the lowest doses tested; for CEA-TCB-induced cytokine release: fixed compound concentrations
Method: The levels of cytokines were measured by Luminex in the supernatants of the assay to determine the impact of the different compounds on CEA-TCB-induced cytokine release.

[8] = inhibitor doses 12.5 nM to 1 μM, 50 000 PBMCs: 5 000 target cells, Incucyte
[9] = 100 nM, compared with dexamethasone

| Compound | MKN45 NLR target cell killing by 10 nM CEA-TCB [1, 8] | T cell activation triggered by the TCB (CD4+ and CD8+ T cells [2]) | CD25 and CD69 expression on CD4+ and CD8+ T cells (T cell activation) (CD4+ and CD8+ T cells [2]) | expression of CD69 on CD8+ T cells (CD4+ and CD8+ T cells [2]) | expression of CD25 on CD4+ T cells (CD4+ and CD8+ T cells [2]) | expression of CD69 on CD4+ T cells (CD4+ and CD8+ T cells [2]) | expression of CD25 on CD8+ T cells (CD4+ and CD8+ T cells [2]) | CD20-TCB-mediated target cell killing (WSU DLCL2 tumor cells) | killing of B cells (WSU DLCL2 tumor cells) | T cell activation (CD25 and CD69 on CD4+ and CD8+ T cells) (CD4+ and CD8+ T cells [3]) | cytokine release induced by CD20-TCB (IFN-γ, IL-2, TNF-α, GM-CSF and IL-6) ([4]; 1 nM CD20-TCB) | CD20-TCB-induced cytokine release [4] | further release of IFN-γ, IL-2, IL-6 ([5]; 1 nM CD20-TCB, three donors) | IL-2, IFN-γ, IL-6 and GM-CSF release ([5]; between 18 hours and 44 hours) | CD19-TCB-dependent killing of CTV labelled SUDLH-8 cells (SUDLH-8 tumor cells) | CD19-TCB-induced cytokine release ([6]; 100 nM inhibitor) | CD19-TCB-induced IFN-γ and TNF-α [6, 9] | levels of IFN-γ, TNF-α, IL-2, IL-6, MCP-1, IL-8, IL-10, IL-4 and GM-CSF [7] | CEA-TCB induced cytokine release [7] | CEA-TCB-induced cytokine release ([7]; 66 h) | further results |
| --- | --- | --- | --- | --- | --- | --- | --- | --- | --- | --- | --- | --- | --- | --- | --- | --- | --- | --- | --- | --- | --- |
| CO[C@H]1C[C@@H]2CC[C@@H](C)[C@@](O)(O2)C(=O)C(=O)N2CCCC[C@H]2C(=O)O[C@H]([C@H](C)C[C@@H]2CC[C@@H](O)[C@H](OC)C2)CC(=O)[C@H](C)/C=C(\C)[C@@H](O)[C@@H](OC)C(=O)[C@H](C)C[C@H](C)/C=C/C=C/C=C/1C [sirolimus, Sirolimus] | only partially reduced | does not fully inhibit | milder impact | did not affect | ~15% | ~25% | 40% | did not fully inhibit | did neither prevent | did not fully inhibit | strongly reduced | comparable effect to dexamethasone and dasatinib | prevented further release | stopped | did not prevent | comparable to the effect of the corticosteroid dexamethasone | comparable to the effect of dexamethasone | very low | strongly downregulated; also recorded: strongly reduces | inhibited; also recorded: comparable to dexamethasone and dasatinib | release of TNF-α and IL-1β ([5]; between 18 hours and 44 hours): to a lower extent |
| CO[C@H]1C[C@@H]2CC[C@@H](C)[C@@](O)(O2)C(=O)C(=O)N2CCCC[C@H]2C(=O)O[C@H]([C@H](C)C[C@@H]2CC[C@@H](OCCO)[C@H](OC)C2)CC(=O)[C@H](C)/C=C(\C)[C@@H](O)[C@@H](OC)C(=O)[C@H](C)C[C@H](C)/C=C/C=C/C=C/1C [everolimus, Everolimus] | only partially reduced | does not fully inhibit | milder impact | did not affect | ~15% | ~25% | 40% | did not fully inhibit | did neither prevent | did not fully inhibit | strongly reduced | comparable effect to dexamethasone and dasatinib | prevented further release | stopped | did not prevent | comparable to the effect of the corticosteroid dexamethasone | comparable to the effect of dexamethasone | very low | strongly downregulated; also recorded: strongly reduces | inhibited; also recorded: comparable to dexamethasone and dasatinib | release of TNF-α and IL-1β ([5]; between 18 hours and 44 hours): to a lower extent |
| N#CC[C@H](C1CCCC1)n1cc(-c2ncnc3[nH]ccc23)cn1 [ruxolitinib, Ruxolitinib] | – | does not fully inhibit | milder impact | – | – | – | – | did not fully inhibit | did neither prevent | did not fully inhibit | – | comparable effect to dexamethasone and dasatinib | – | – | did not prevent | comparable to the effect of the corticosteroid dexamethasone | comparable to the effect of dexamethasone | very low | strongly downregulated; also recorded: strongly reduces | inhibited; also recorded: comparable to dexamethasone and dasatinib | killing of MKN45 NLR tumor cells induced by 1 nM CEA-TCB ([1]; concentration of 1 μM): partially prevented; killing of MKN45 NLR tumor cell induced by 1 nM CEA-TCB ([1]; concentrations between 0 nM and 100 nM): did not prevent; MKN45 NLR target cell killing by 10 nM CEA-TCB ([1]; inhibitor doses 6.25 nM to 100 nM): only partially reduced; expression of CD25 and CD69 on both CD4+ and CD8+ T cells (CD4+ and CD8+ T cells [2]; 69 h, escalating doses): dose-dependently influenced; release of TNF-α, IL-2 and GM-CSF ([4]; 1 nM CD20-TCB): did not have a strong effect; IL-6 and IFN-γ release induced by CD20-TCB ([4]; 1 nM CD20-TCB, concentrations above 25 nM): strongly reduced; IL-2 release ([5]; 1 nM CD20-TCB, three donors): did not prevent; further release of IFN-γ and IL-6 ([5]; 1 nM CD20-TCB, three donors): prevented further release; further production of IFN-γ, IL-6 ([5]; between 18 hours and 44 hours): prevented further production; further production of IL-2 ([5]; between 18 hours and 44 hours): did not prevent further production; CD19-TCB-induced IFN-γ, TNF-α, IL-6 and GM-CSF release ([6]; 100 nM inhibitor): prevented; CD19-TCB-induced IL-2 and GM-CSF [6, 9]: weaker; degree of inhibition of IFN-γ, TNF-α, GM-CSF, IL-6 and IL-8 levels ([7]; escalating concentrations, ruxolitinib vs. baricitinib): similar; IL-2 levels ([7]; 66 h, compared with the mTOR inhibitors): reduced IL-2 levels less strongly |
